Laboratory results reported in patent publication US12103924B2, “Mitogen-activated protein kinase kinase (MEK) degradation compounds and methods of use” (Icahn School of Medicine at Mount Sinai, priority 2020, dated 2024).

Columns and labels:
MEK1/2 = assay: Western blot of MEK1/2 protein levels in HT-29 cells; format: cell-based; details: 24 h
Description: Compound concentrations are 0.3 μM, 1 μM and 3 μM.
The indicated protein levels were determined by Western blots.
The sample was centrifuged at 12,000 g for 10 min at 4° C. to get supernatant as cell lysate. Protein concentrations were quantified using Pierce rapid gold BCA protein assay kit.

HT-29 cells = assay: MTT cell viability assay, HT-29; format: cell-based; details: Homo sapiens, 72 h, MTT assay, 3 d treatment, serial dilutions
[1] = HT-29 cells, 0.3 μM, 1 μM and 3 μM, western blot normalized with α-tubulin

SMILES	MEK1 and MEK2 protein levels (MEK1/2; HT-29 cells, 0.1, 0.3, or 1 μM)	GI50 (HT-29 cells) [µM]	MEK1 and MEK2 protein levels (MEK1/2; [1])
O=C(NOC[C@H](O)CO)c1ccc(F)c(F)c1Nc1ccc(I)cc1F [PD0325901, reference compound]	not		
O=C1CCC(N2C(=O)c3ccc(NCCCNCCCONC(=O)c4ccc(F)c(F)c4Nc4ccc(I)cc4F)cc3C2=O)C(=O)N1 (stereo not shown) [CPD-041, N-(3-((3-((2-(2,6-dioxopiperidin-3-yl)-1,3-dioxoisoindolin-5-yl)amino)propyl)amino)propoxy)-3,4-difluoro-2-((2-fluoro-4-iodophenyl)amino)benzamide]		0.5 ± 0.2	not
Cc1ncsc1-c1ccc(CNC(=O)[C@@H]2C[C@@H](O)CN2C(=O)[C@@H](NC(=O)CCCCCCCCCCNCCCONC(=O)c2ccc(F)c(F)c2Nc2ccc(I)cc2F)C(C)(C)C)cc1 [CPD-014, (2S,4R)-1-((S)-20-(tert-butyl)-1-(3,4-difluoro-2-((2-fluoro-4-iodophenyl)amino)phenyl)-1,18-dioxo-3-oxa-2,7,19-triazahenicosan-21-oyl)-4-hydroxy-N-(4-(4-methylthiazol-5-yl)benzyl)pyrrolidine-2-carboxamide]		0.4 ± 0.2	reduced
O=C1CCC(N2C(=O)c3ccc(NCCOCCOCCOCCOCCNCCCONC(=O)c4ccc(F)c(F)c4Nc4ccc(I)cc4F)cc3C2=O)C(=O)N1 (stereo not shown) [CPD-050, N-((1-((2-(2,6-dioxopiperidin-3-yl)-1,3-dioxoisoindolin-5-yl)amino)-3,6,9,12-tetraoxa-15-azaoctadecan-18-yl)oxy)-3,4-difluoro-2-((2-fluoro-4-iodophenyl)amino)benzamide]		0.5 ± 0.06	significantly degraded
O=C1CCC(N2C(=O)c3ccc(NCCCCCCCNCCCONC(=O)c4ccc(F)c(F)c4Nc4ccc(I)cc4F)cc3C2=O)C(=O)N1 (stereo not shown) [CPD-045, N-(3-((7-((2-(2,6-dioxopiperidin-3-yl)-1,3-dioxoisoindolin-5-yl)amino)heptyl)amino)propoxy)-3,4-difluoro-2-((2-fluoro-4-iodophenyl)amino)benzamide]		0.5 ± 0.2	significantly degraded
Cc1ncsc1-c1ccc(CNC(=O)[C@@H]2C[C@@H](O)CN2C(=O)[C@@H](NC(=O)COCCOCCOCCNCCCONC(=O)c2ccc(F)c(F)c2Nc2ccc(I)cc2F)C(C)(C)C)cc1 [CPD-015, (2S,4R)-1-((S)-20-(tert-butyl)-1-(3,4-difluoro-2-((2-fluoro-4-iodophenyl)amino)phenyl)-1,18-dioxo-3,10,13,16-tetraoxa-2,7,19-triazahenicosan-21-oyl)-4-hydroxy-N-(4-(4-methylthiazol-5-yl)benzyl)pyrrolidine-2-carboxamide]		1.3 ± 0.1	reduced
O=C1CCC(N2C(=O)c3ccc(NCCCCCNCCCONC(=O)c4ccc(F)c(F)c4Nc4ccc(I)cc4F)cc3C2=O)C(=O)N1 (stereo not shown) [CPD-043, N-(3-((5-((2-(2,6-dioxopiperidin-3-yl)-1,3-dioxoisoindolin-5-yl)amino)pentyl)amino)propoxy)-3,4-difluoro-2-((2-fluoro-4-iodophenyl)amino)benzamide]		0.5 ± 0.1	significantly degraded
O=C1CCC(N2C(=O)c3cccc(NCCOCCNCCCONC(=O)c4ccc(F)c(F)c4Nc4ccc(I)cc4F)c3C2=O)C(=O)N1 (stereo not shown) [CPD-019, N-(3-((2-(2-((2-(2,6-dioxopiperidin-3-yl)-1,3-dioxoisoindolin-4-yl)amino)ethoxy)ethyl)amino)propoxy)-3,4-difluoro-2-((2-fluoro-4-iodophenyl)amino)benzamide]		1.2 ± 0.2	not
Cc1ncsc1-c1ccc([C@H](C)NC(=O)[C@@H]2C[C@@H](O)CN2C(=O)[C@@H](NC(=O)CCCCCCCCCNCCCCONC(=O)c2ccc(F)c(F)c2Nc2ccc(I)cc2F)C(C)(C)C)cc1 [CPD-035, (2S,4R)-1-((S)-20-(tert-butyl)-1-(3,4-difluoro-2-((2-fluoro-4-iodophenyl)amino)phenyl)-1,18-dioxo-3-oxa-2,8,19-triazahenicosan-21-oyl)-4-hydroxy-N—((S)-1-(4-(4-methylthiazol-5-yl)phenyl)ethyl)pyrrolidine-2-carboxamide]		0.055 ± 0.005	
O=C1CCC(N2C(=O)c3cccc(NCCOCCOCCOCCNCCCONC(=O)c4ccc(F)c(F)c4Nc4ccc(I)cc4F)c3C2=O)C(=O)N1 (stereo not shown) [CPD-021, N-((1-((2-(2,6-dioxopiperidin-3-yl)-1,3-dioxoisoindolin-4-yl)amino)-3,6,9-trioxa-12-azapentadecan-15-yl)oxy)-3,4-difluoro-2-((2-fluoro-4-iodophenyl)amino)benzamide]		0.8 ± 0.2	
Cc1ncsc1-c1ccc(CNC(=O)[C@@H]2C[C@@H](O)CN2C(=O)[C@@H](NC(=O)CCCCCCCNCCCONC(=O)c2ccc(F)c(F)c2Nc2ccc(I)cc2F)C(C)(C)C)cc1 [CPD-011, (2S,4R)-1-((S)-17-(tert-butyl)-1-(3,4-difluoro-2-((2-fluoro-4-iodophenyl)amino)phenyl)-1,15-dioxo-3-oxa-2,7,16-triazaoctadecan-18-oyl)-4-hydroxy-N-(4-(4-methylthiazol-5-yl)benzyl)pyrrolidine-2-carboxamide]		0.5 ± 0.2	
O=C1CCC(N2C(=O)c3ccc(NCCOCCOCCNCCCONC(=O)c4ccc(F)c(F)c4Nc4ccc(I)cc4F)cc3C2=O)C(=O)N1 (stereo not shown) [CPD-048, N-(3-((2-(2-(2-((2-(2,6-dioxopiperidin-3-yl)-1,3-dioxoisoindolin-5-yl)amino)ethoxy)ethoxy)ethyl)amino)propoxy)-3,4-difluoro-2-((2-fluoro-4-iodophenyl)amino)benzamide]		1.1 ± 0.3	
O=C1CCC(N2C(=O)c3cccc(NCCCNCCCONC(=O)c4ccc(F)c(F)c4Nc4ccc(I)cc4F)c3C2=O)C(=O)N1 (stereo not shown) [CPD-025, N-(3-((3-((2-(2,6-dioxopiperidin-3-yl)-1,3-dioxoisoindolin-4-yl)amino)propyl)amino)propoxy)-3,4-difluoro-2-((2-fluoro-4-iodophenyl)amino)benzamide]		1.1 ± 0.07	
O=C1CCC(N2C(=O)c3cccc(NCCCCCCNCCCONC(=O)c4ccc(F)c(F)c4Nc4ccc(I)cc4F)c3C2=O)C(=O)N1 (stereo not shown) [CPD-028, N-(3-((6-((2-(2,6-dioxopiperidin-3-yl)-1,3-dioxoisoindolin-4-yl)amino)hexyl)amino)propoxy)-3,4-difluoro-2-((2-fluoro-4-iodophenyl)amino)benzamide]		3.8 ± 1.7	
O=C1CCC(N2C(=O)c3ccc(NCCCCCCCCNCCCONC(=O)c4ccc(F)c(F)c4Nc4ccc(I)cc4F)cc3C2=O)C(=O)N1 (stereo not shown) [CPD-046, N-(3-((8-((2-(2,6-dioxopiperidin-3-yl)-1,3-dioxoisoindolin-5-yl)amino)octyl)amino)propoxy)-3,4-difluoro-2-((2-fluoro-4-iodophenyl)amino)benzamide]		0.3 ± 0.1	significantly degraded
O=C1CCC(N2C(=O)c3ccc(NCCCCCCNCCCONC(=O)c4ccc(F)c(F)c4Nc4ccc(I)cc4F)cc3C2=O)C(=O)N1 (stereo not shown) [CPD-044, N-(3-((6-((2-(2,6-dioxopiperidin-3-yl)-1,3-dioxoisoindolin-5-yl)amino)hexyl)amino)propoxy)-3,4-difluoro-2-((2-fluoro-4-iodophenyl)amino)benzamide]		1.1 ± 0.5	
Cc1ncsc1-c1ccc(CNC(=O)[C@@H]2C[C@@H](O)CN2C(=O)[C@@H](NC(=O)CCCCCCNCCCONC(=O)c2ccc(F)c(F)c2Nc2ccc(I)cc2F)C(C)(C)C)cc1 [CPD-001, (2S,4R)-1-((S)-16-(tert-Butyl)-1-(3,4-difluoro-2-((2-fluoro-4-iodophenyl)amino)phenyl)-1,14-dioxo-3-oxa-2,7,15-triazaheptadecan-17-oyl)-4-hydroxy-N-(4-(4-methylthiazol-5-yl)benzyl)pyrrolidine-2-carboxamide]		1.4 ± 0.2	reduced
O=C1CCC(N2C(=O)c3cccc(NCCOCCOCCNCCCONC(=O)c4ccc(F)c(F)c4Nc4ccc(I)cc4F)c3C2=O)C(=O)N1 (stereo not shown) [CPD-020, N-(3-((2-(2-(2-((2-(2,6-dioxopiperidin-3-yl)-1,3-dioxoisoindolin-4-yl)amino)ethoxy)ethoxy)ethyl)amino)propoxy)-3,4-difluoro-2-((2-fluoro-4-iodophenyl)amino)benzamide]		1.3 ± 0.5	
Cc1ncsc1-c1ccc(CNC(=O)[C@@H]2C[C@@H](O)CN2C(=O)[C@@H](NC(=O)COCCNCCCONC(=O)c2ccc(F)c(F)c2Nc2ccc(I)cc2F)C(C)(C)C)cc1 [CPD-002, (2S,4R)-1-((S)-14-(tert-Butyl)-1-(3,4-difluoro-2-((2-fluoro-4-iodophenyl)amino)phenyl)-1,12-dioxo-3,10-dioxa-2,7,13-triazapentadecan-15-oyl)-4-hydroxy-N-(4-(4-methylthiazol-5-yl)benzyl)pyrrolidine-2-carboxamide]		4 ± 0.2	
O=C1CCC(N2C(=O)c3ccc(NCCOCCOCCOCCNCCCONC(=O)c4ccc(F)c(F)c4Nc4ccc(I)cc4F)cc3C2=O)C(=O)N1 (stereo not shown) [CPD-049, N-((1-((2-(2,6-dioxopiperidin-3-yl)-1,3-dioxoisoindolin-5-yl)amino)-3,6,9-trioxa-12-azapentadecan-15-yl)oxy)-3,4-difluoro-2-((2-fluoro-4-iodophenyl)amino)benzamide]		1.5 ± 0.5	
Cc1ncsc1-c1ccc(CNC(=O)[C@@H]2C[C@@H](O)CN2C(=O)[C@@H](NC(=O)CCCCCCCCCNCCCONC(=O)c2ccc(F)c(F)c2Nc2ccc(I)cc2F)C(C)(C)C)cc1 [CPD-013, (2S,4R)-1-((S)-19-(tert-butyl)-1-(3,4-difluoro-2-((2-fluoro-4-iodophenyl)amino)phenyl)-1,17-dioxo-3-oxa-2,7,18-triazaicosan-20-oyl)-4-hydroxy-N-(4-(4-methylthiazol-5-yl)benzyl)pyrrolidine-2-carboxamide]		0.5 ± 0.03	
Cc1ncsc1-c1ccc(CNC(=O)[C@@H]2C[C@@H](O)CN2C(=O)[C@@H](NC(=O)CCCCNCCCONC(=O)c2ccc(F)c(F)c2Nc2ccc(I)cc2F)C(C)(C)C)cc1 [CPD-007, (2S,4R)-1-((S)-14-(tert-Butyl)-1-(3,4-difluoro-2-((2-fluoro-4-iodophenyl)amino)phenyl)-1,12-dioxo-3-oxa-2,7,13-triazapentadecan-15-oyl)-4-hydroxy-N-(4-(4-methylthiazol-5-yl)benzyl)pyrrolidine-2-carboxamide]		3 ± 0.5	
